Data taken from article PMC4434572, “Identification of novel drugs to target dormant micrometastases” (BMC Cancer, 2015).
Where two headings read alike, the source gives them in different places.

Key:
[1] = test system: MDA-MB-435 cells; test: Proliferation (CFDA-AM esterase assay) of cells grown on SISgel, plastic or Matrigel, 48 h drug exposure; type: cell-based; settings: for SI (EC50-P/EC50-S): ratio of EC50 on plastic versus SISgel
Description: The libraries were obtained from the NCI (Diversity Library I) comprised of 2,918 compounds and a 10,000 compound diversity library from ChemBridge, Inc. (DiverSet-EXP). The NCI library is no longer available in the form used here, but how it was constructed is described (http://dtp.nci.nih.gov/branches/dscb/diversity_explanation.html). The ChemBridge library is a subset (Set Code NM1024) of the full 50,000 compound library (http://www.chembridge.com/screening_libraries/diversity_libraries/). Compounds were diluted to 100 μM before use. SISgel was prepared as described previously from powdered porcine small intestine submucosa obtained from Cook Biotech (W. Lafayette, IN). It is a natural product that is used extensively in tissue engineering as a bioscaffold. J82 bladder cancer cells and other cell lines were obtained from the ATCC (Bethesda, MD). The basic principle is that cells grown on any ECM are, in general, expected to show higher resistance to anticancer compounds than when grown on plastic. Therefore, compounds that show a higher activity toward cancer cells on a normal ECM than on a plastic surface would be candidates to target suppressed, micrometastatic cells. Efficacy in vitro was assessed by plating 30,000 cells in 50 μL of high glucose DMEM with penicillin-streptomycin and 10 % fetal calf serum on SISgel in a 96-well plate containing 50 μL of gelled SISgel per well. Cells were allowed to attach and assume the SISgel phenotype for 48 h. A matching plate without SISgel was prepared 24 h later by pipetting 3,000 cells in 100 μL of high glucose DMEM with penicillin-streptomycin and 10 % fetal calf serum into each well of 96 well plate. The cells were allowed to attach and grow for 24 h. These numbers of cells gave approximately equal replication rates at the time drug was added for cells grown on the plastic surface or SISgel as determined by the fraction of S-phase cells identified by flow cytometry. The cells were exposed to drug in fresh medium for 48 h, at which time the cell number was determined using the CFDA-AM cellular esterase proliferation assay (cat. #C1354, Life Technologies). For screening the results are reported as the ratio of cell count of cells on the plastic surface to the cell count on SISgel. An initial difference of 1.5 fold identified potential hits. All potential hits were confirmed in triplicate. Those compounds that replicated were confirmed by a full dose–response study yielding an EC50 using five wells per drug concentration. Data were analyzed using nonlinear regression to a sigmoid curve with Prism 4 (GraphPad Software, Inc., LaJolla, CA). Potential hits that were confirmed by dose–response using J82 were also tested with MDA-MB-435 breast cancer, PC-3 metastatic prostate cancer, Capan1 pancreatic cancer and the J82 bladder cancer cell lines.

[2] = test system: 4T1 Luc2-GFP cells; test: Orthotopic 4T1 syngeneic model of triple-negative breast cancer with natural lung metastasis; type: in vivo, BALB/c mice; settings: for number of large multicellular micrometastases and vascularized macrometastases to the lung: i.p. or osmotic pump
Experimental: 4T1 Luc2-GFP cells (PerkinElmer, Waltham, MA) were cultured in DMEM high glucose media with 2 mM pyruvate, 2 mM glutamine, 2 % Pen/Strep and 10 % Cosmic Calf Serum (Mediatech, Manassas, VA). To prepare cells for injection they were removed from flasks, counted using the TC10 counting system (BioRad, Hercules, CA) and checked for viability. Cells were then washed with PBS, pelleted and taken up at a concentration of 75,000 cells/ml; 100 μl of cell suspension (7,500 cells) was injected subcutaneously (bevel side up) into mammary fat pad #4 of 8 weeks old female BALB/c mice (NCI National Laboratory Frederick/Charles River animal production program). All animals were weighed and tumors were measured using calipers three times weekly. Beginning one week after implantation, which is when micrometastatic cells begin to arrive in the lungs, animals were treated three times per week with intraperitoneal DT310 or DT320 at their NOAEL dose of 75 mg/kg three times week dissolved in saline or by osmotic pump. The osmotic pumps (Alzet #2004) delivered an NOAEL dose of 23.4 and 26.7 μg/h of DT310 and DT320, respectively, for 4 weeks and were implanted as directed subcutaneously posterior to scapulae. Docetaxel was delivered once weekly intraperitoneally at its MTD of 15 mg/kg and doxorubicin delivered once weekly at its MTD of 1 mg/kg in 5 % N-Methyl-2-pyrrolidone, 5 % Solutol HS, and 90 % saline. GFP positive cells were imaged with excitation of GFP emission using a Leica Model Z16 APO fluorescence microscope equipped for a wide field, a large depth of field and 0.57–9.2X zoom capability. GFP-positive objects were counted and scored as to whether they were […], clumps of less than ten cells without a visible vasculature, as determined by co-injection of tetramethylrhodamine labeled dextran (2 million MW).

[3] = MDA-MB-435 cells on SISgel, read-out: EC50-S
[4] = MDA-MB-435 cells on plastic, read-out: EC50-P
[5] = i.p. injection or osmotic pump, vs untreated

Compound `O=S(=O)([O-])c1cc(O)c2c(O)c(N=Nc3cccc4ccccc34)c(S(=O)(=O)[O-])cc2c1.[Na+].[Na+]` [DT320, 4,5-Dihydroxy-3-(1-naphthalenylazo)-2,7-naphthalenedisulfonic acid disodium salt] has an EC50 [1, 3] of 8.7 µM, an EC50 [1, 4] of 78 µM and a Ratio ([1]; Matrigel/SISgel EC50, MDA-MB-435) of 2.4. The “SI (EC50-P/EC50-S)” value [1] was 9.0 and the primary tumor growth [2, 5] was “significant reduction”.

With `COc1cccc2c1C(=O)c1c(O)c3c(c(O)c1C2=O)C[C@@](O)(C(=O)CO)C[C@@H]3O[C@H]1C[C@H](N)[C@H](O)[C@H](C)O1` [Doxorubicin, reference compound] the EC50 ([1]; Homo sapiens, MDA-MB-435 cells on SISgel, read-out: EC50-S) was 45.4 µM, the EC50 ([1]; Homo sapiens, MDA-MB-435 cells on plastic, read-out: EC50-P) was 47.8 µM and the “SI (EC50-P/EC50-S)” value [1] was 1.05. For the same compound, the primary tumor growth ([2]; administered i.p. at MTD) was “small effect” and the “number of large multicellular micrometastases and vascularized macrometastases to the lung” value [2] was “only minimal effects”.

With `O=S(=O)([O-])c1ccc2c(N=Nc3cccc4ccccc34)c(O)c(S(=O)(=O)[O-])cc2c1.[Na+].[Na+]` [DT310, 4-(1-naphthalenylhydrazinylidene) -3-oxonaphthalene-2,7-disulfonic acid] the EC50 [1, 3] was 35.9 µM, the EC50 [1, 4] was 86.5 µM and the “SI (EC50-P/EC50-S)” value [1] was 2.4. The primary tumor growth [2, 5] was “significant reduction”, the “number of large multicellular micrometastases and vascularized macrometastases to the lung” value [2] was “most sharply” and the “number of single micrometastatic cells and small micrometastases in lung” value ([2]; osmotic pump administration) was “significant effect”.
